The supplement of paper PMC11208160

Assay: recombinant UMI read abundance after kanamycin selection (control-corrected) (log10(CPM+1)); higher = more efficient recombination; extreme values may be limits of the assay; sequences stand for … in AGTGCAGAGAAAATCGGCCAGTTTTCTCTGCCTGCAGTCCGCATGCCGTGGGACCCCTTGGGTTCTAACCTGTTGCCTAGATTTATGCAGCGGACTGCCTTTCTCCCAAAGTGATAAACCGG…AGGTTGGTTTCACT; site = the 11-nt donor
In short: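 In a pooled Escherichia coli screen for the IS621 bridge recombinase, donor and donor-binding-loop pairs were each placed with a 12-nt UMI on a plasmid bearing a promoterless kanamycin gene. This library was co-electroporated with a target plasmid encoding a fixed target and T7-inducible recombinase, and cells were plated either on IPTG (0.07 mM) plus kanamycin or without selection, in two replicates each. Recombinant UMIs were PCR-amplified across the donor–target junction and sequenced, and counts were converted to CPM, averaged over replicates, scaled by control-derived factors and reported as log10(CPM+1).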

Row | Sequence | recombinant UMI read abundance (log10)
1 | TCCTCCGCATGGACCGGTTTTCCCGGTAATCCGTATTTGCG (site TCCTCCGCTCG) | 0.0201
2 | TCCTCCTCATGGACCGGTTTTCCCGGTAATCCGTATTTGCC (site TCCTCCTCTGG) | 0
3 | TCCTTGACATGGACCGGTTTTCCCGGTAATCCGTATTTGCT (site TACTTGACTAG) | 0.397
4 | TCCTTGACATGGACCGGTTTTCCCGGTAATCCGTATTTGCT (site TCCTTGACTAG) | 0
5 | TCCTTGACATGGACCGGTTTTCCCGGTAATCCGTATTTGCT (site TGCTTGACTAG) | 0
6 | TCCTTGACATGGACCGGTTTTCCCGGTAATCCGTATTTGCT (site TTCTTGACTAG) | 0
7 | TCGAAGCCATGGACCGGTTTTCCCGGTAATCCGTATTTGGG (site ACGAAGCCTCC) | 0.0545
8 | TCGAAGCCATGGACCGGTTTTCCCGGTAATCCGTATTTGGG (site CCGAAGCCTCC) | 0.0131
9 | TCGAAGCCATGGACCGGTTTTCCCGGTAATCCGTATTTGGG (site GCGAAGCCTCC) | 0.0961
10 | TCGAAGCCATGGACCGGTTTTCCCGGTAATCCGTATTTGGG (site TCGAAGCCTCC) | 0.0129
11 | TCGAATACATGGACCGGTTTTCCCGGTAATCCGTATTTGAG (site TCGAATACTCT) | 1.44
12 | TCGACAGCATGGACCGGTTTTCCCGGTAATCCGTATTTGTA (site TCGACAGCTTA) | 1.02
13 | TCGACATCATGGACCGGTTTTCCCGGTAATCCGTATTTGCG (site TCGACATCTCG) | 0.266
14 | TCGACCGCATGGACCGGTTTTCCCGGTAATCCGTATTTGCG (site TCAACCGCTCG) | 0.00755
15 | TCGACCGCATGGACCGGTTTTCCCGGTAATCCGTATTTGCG (site TCCACCGCTCG) | 0
16 | TCGACCGCATGGACCGGTTTTCCCGGTAATCCGTATTTGCG (site TCGACCGCTCG) | 0.0218
17 | TCGACCGCATGGACCGGTTTTCCCGGTAATCCGTATTTGCG (site TCTACCGCTCG) | 0.0287
18 | TCGACCTCATGGACCGGTTTTCCCGGTAATCCGTATTTGGA (site TCGACCTCTTC) | 0.524
19 | TCGAGAGCATGGACCGGTTTTCCCGGTAATCCGTATTTGGC (site TCGAGAGCTGC) | 1.86
20 | TCGCACACATGGACCGGTTTTCCCGGTAATCCGTATTTGGG (site TCGCACACTCC) | 0.0145
21 | TCGCAGACATGGACCGGTTTTCCCGGTAATCCGTATTTGCG (site TCGCAGACTCG) | 0.0105
22 | TCGCAGCCATGGACCGGTTTTCCCGGTAATCCGTATTTGCT (site TCGCAGCCTAG) | 0
23 | TCGCCATCATGGACCGGTTTTCCCGGTAATCCGTATTTGGC (site GAAGGCCCTAG) | 0

Row | Sequence | recombinant UMI read abundance (log10)
24 | TCGCGTACATGGACCGGTTTTCCCGGTAATCCGTATTTGGG (site TCGCGTACTCC) | 0.0193
25 | TCGCTAGCATGGACCGGTTTTCCCGGTAATCCGTATTTGCT (site TCGCTAGCTAG) | 0
26 | TCGCTCTCATGGACCGGTTTTCCCGGTAATCCGTATTTGGC (site TCGCTCTCTGC) | 0
27 | TCGCTGACATGGACCGGTTTTCCCGGTAATCCGTATTTGTA (site TCGCTGACTTA) | 1.3
28 | TCGGACCCATGGACCGGTTTTCCCGGTAATCCGTATTTGGG (site TCGGACCCTCC) | 0.036
29 | TCGGACCCATGGACCGGTTTTCCCGGTAATCCGTATTTGTT (site TCGGACCCTAA) | 0.013
30 | TCGGTAGCATGGACCGGTTTTCCCGGTAATCCGTATTTGTG (site TCGGTAGCTCA) | 0.629
31 | TCGTACGCATGGACCGGTTTTCCCGGTAATCCGTATTTGCC (site TCGTACGCTGG) | 0
32 | TCGTATCCATGGACCGGTTTTCCCGGTAATCCGTATTTGAC (site TCGTATCCTGT) | 0
33 | TCGTCACCATGGACCGGTTTTCCCGGTAATCCGTATTTGTA (site TCGTCACCTTA) | 0.0393
34 | TCGTGCACATGGACCGGTTTTCCCGGTAATCCGTATTTGAC (site TCGTGCACTGT) | 1.93
35 | TCGTTCGCATGGACCGGTTTTCCCGGTAATCCGTATTTGCT (site TCGTTCGCTAG) | 0
36 | TCTAAGTCATGGACCGGTTTTCCCGGTAATCCGTATTTGCA (site TCTAAGTCTTG) | 0.436
37 | TCTAGAACATGGACCGGTTTTCCCGGTAATCCGTATTTGAG (site ACTAGAACTCT) | 0.00743
38 | TCTAGAACATGGACCGGTTTTCCCGGTAATCCGTATTTGAG (site CCTAGAACTCT) | 0.0482
39 | TCTAGAACATGGACCGGTTTTCCCGGTAATCCGTATTTGAG (site GCTAGAACTCT) | 0
40 | TCTAGAACATGGACCGGTTTTCCCGGTAATCCGTATTTGAG (site TCTAGAACTCT) | 0.00301
41 | TCTATGACATGGACCGGTTTTCCCGGTAATCCGTATTTGTG (site TCTATGACTCA) | 0.00894
42 | TCTGGACCATGGACCGGTTTTCCCGGTAATCCGTATTTGAC (site TCTGGACCTGT) | 0
43 | TCTGGCGCATGGACCGGTTTTCCCGGTAATCCGTATTTGCC (site TCTGGCGCTGG) | 0
44 | TCTTCCGCATGGACCGGTTTTCCCGGTAATCCGTATTTGAT (site TCTTCCGCTAT) | 0.00526
45 | TCTTCGGCATGGACCGGTTTTCCCGGTAATCCGTATTTGGC (site TCTTCGGCTGC) | 0
46 | TGAAGCTCATGGACCGGTTTTCCCGGTAATCCGTATTTGGG (site TGAAGCTCTCC) | 0.0156

Row | Sequence | recombinant UMI read abundance (log10)
47 | TGACAACCATGGACCGGTTTTCCCGGTAATCCGTATTTGCC (site TGACAACCTGG) | 0
48 | TGACACCCATGGACCGGTTTTCCCGGTAATCCGTATTTGAA (site TGACACCCTTT) | 0.0711
49 | TGACCGGCATGGACCGGTTTTCCCGGTAATCCGTATTTGGC (site TGACCGGCTGC) | 1.25
50 | TGACCGGCATGGACCGGTTTTCCCGGTAATCCGTATTTGGC (site TGCCCGGCTGC) | 0
51 | TGACCGGCATGGACCGGTTTTCCCGGTAATCCGTATTTGGC (site TGGCCGGCTGC) | 0
52 | TGACCGGCATGGACCGGTTTTCCCGGTAATCCGTATTTGGC (site TGTCCGGCTGC) | 0
53 | TGACGGTCATGGACCGGTTTTCCCGGTAATCCGTATTTGAA (site TGACGGTCTTT) | 1.52
54 | TGACTATCATGGACCGGTTTTCCCGGTAATCCGTATTTGCC (site TGACTATCTGG) | 1.54
55 | TGAGCTACATGGACCGGTTTTCCCGGTAATCCGTATTTGCC (site TGAGCTACTGG) | 0.451
56 | TGAGCTTCATGGACCGGTTTTCCCGGTAATCCGTATTTGTA (site TGAGCTTCTTA) | 1.92
57 | TGAGGCACATGGACCGGTTTTCCCGGTAATCCGTATTTGGT (site TGAGGCACTAC) | 0.463
58 | TGAGGTCCATGGACCGGTTTTCCCGGTAATCCGTATTTGAA (site TGAGGTCCTTT) | 0.00722
59 | TGAGTCACATGGACCGGTTTTCCCGGTAATCCGTATTTGAC (site TGAGTCACTGT) | 2.61
60 | TGATAGACATGGACCGGTTTTCCCGGTAATCCGTATTTGCC (site AGATAGACTGG) | 1.96
61 | TGATAGACATGGACCGGTTTTCCCGGTAATCCGTATTTGCC (site CGATAGACTGG) | 2.02
62 | TGATAGACATGGACCGGTTTTCCCGGTAATCCGTATTTGCC (site GGATAGACTGG) | 0
63 | TGATAGACATGGACCGGTTTTCCCGGTAATCCGTATTTGCC (site TGATAGACTGG) | 2.54
64 | TGATCCTCATGGACCGGTTTTCCCGGTAATCCGTATTTGCT (site CGATCATCTAG) | 0.523
65 | TGATCCTCATGGACCGGTTTTCCCGGTAATCCGTATTTGCT (site TGATCCTCTAG) | 1.81
66 | TGATGAGCATGGACCGGTTTTCCCGGTAATCCGTATTTGGG (site TAATGAGCTCC) | 0.0122
67 | TGATGAGCATGGACCGGTTTTCCCGGTAATCCGTATTTGGG (site TCATGAGCTCC) | 0.0102
68 | TGATGAGCATGGACCGGTTTTCCCGGTAATCCGTATTTGGG (site TGATGAGCTCC) | 0.403
